This passage reports IC50 results from patent US7473783B2, “Bicyclic pyrazolo protein kinase modulators” (SGX Pharmaceuticals, Inc., priority 2003, dated 2009).

Some results are limits rather than exact numbers.

Broadly, the IC50 is the concentration needed to halve the response being measured. A high value points to weaker potency.

Assay [1] addresses T1, cAbl (Mus musculus, UniProt P00520).
T1 construct: 2 μg/mL Abl kinase domain; made in house; host or cells: E. coli BL21(DE3) strains
T1 sequence (P00520 242-493 limits assumed): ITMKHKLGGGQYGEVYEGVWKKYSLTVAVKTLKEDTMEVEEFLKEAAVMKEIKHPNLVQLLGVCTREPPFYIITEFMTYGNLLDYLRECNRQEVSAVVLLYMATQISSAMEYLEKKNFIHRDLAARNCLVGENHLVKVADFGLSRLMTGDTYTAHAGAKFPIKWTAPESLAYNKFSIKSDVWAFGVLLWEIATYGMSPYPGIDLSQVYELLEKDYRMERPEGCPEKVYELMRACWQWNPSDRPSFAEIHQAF
Kind of assay: Abl kinase assay (PK/LDH coupled, NADH loss at 340 nm). The class given is biochemical. The settings on record: Table 7; 10 μM ATP. The source says:
Although this example presents the use of the kinase domain of a mutant form of Abl T315I 0-P, the kinase assays may use various forms of mutant and wild type Abl, including, for example, the entire molecule, the kinase domain, or a portion thereof. The kinases used in the assays may also be of varying phophorylation states. In the present example, a mutant kinase at a zero phosphorylation state was used.
Materials: Abl substrate peptide=EAIYAAPFAKKK-OH (Biopeptide, SD CA); βNADH (Sigma CAT#N-8129, FW=709.4); 2M MgCl2; 1M HEPES buffer, pH 7.5; Phosphoenolpyruvate=PEP (Sigma CAT#P-7002, FW=234); Lactate dehydrogenase=LDH (Worthington Biochemical CAT#2756); Pyruvate Kinase=PK (Sigma CAT#P-9136); ATP (Sigma CAT#A-3377, FW=551); Greiner 384-well UV star plate; and Purified and unphosphorylated T315I Abl kinase domain (clone 5582d42PPt6p6).
Stock Solutions: 10 mM NADH (7.09 mg/mL in miliQH2O) make fresh daily; 10 mM Abl substrate peptide (13.4 mg/mL in miliQH2O) store at −20° C.; 100 mM HEPES buffer, pH 7.5 (5 mL 1M stock+45 mL miliQH2O); 100 mM MgCl2 (5 mL 2M MgCl2+95 ml dH2O); 100 mM PEP (23.4 mg/mL in dH2O) store at −20° C.; 10 mM ATP (5.51 mg/mL in dH2O) store at −20° C. (dilute 50 μL into total of 10 mL miliQH2O daily=50 μM ATP working stock); 1000 U/mL PK (U/mg varies with lot) flash-freeze under liquid N2 and store at −80° C.; and 1000 U/mL LDH (U/mg varies with lot) flash-freeze under liquid N2 and store at −80° C.
Standard Assay Setup for 384-well format (50 μl reaction): 300 μM NADH; 10 mM MgCl2; 2 mM PEP; 45 U/mL PK; 60 U/mL LDH; 200 μM Abl substrate peptide; 2.5 μL test compound (in DMSO); 2 μg/mL Abl kinase domain; 10 μM ATP; 100 mM HEPES buffer; QS with miliQ dH2O to 50 μL; Positive controls contained DMSO with no test compound. Negative controls contained 5 μl of 0.5M EDTA (50 mM in the assay). The dephosphorylated form of the c-Abl T315I mutant were used in the biochemical screening assays. The kinase reaction was initiated at time t=0 by the addition of ATP.
The activity was measured by following the time-dependent loss of NADH by absorbance spectroscopy at 340 nm. The linear portion of the resulting progress curve was then be analyzed by linear regression to get the activity in absorbance units/time, reported as the slope of that best fit line (moles/unit time can be calculated from using molar extinction coefficient for NADH at 340 nm, 6250M^−1cm^−1).
Data was analyzed using the equation: Z′=1-[3*(σ++σ−)/|μ+−μ−|], where μ denotes the mean and σ the standard deviation. The subscript designates positive or negative controls. The Z′ score for a robust screening assay should be ≧0.50. The typical threshold=μ+−3*σ+. Any value that falls below the threshold was designated a “hit”.
Dose response was analyzed using the equation: y=min+{(max−min)/(1+10^[compound]-logIC50)}, where y is the observed initial slope, max=the slope in the absence of inhibitor, min=the slope at infinite inhibitor, and the IC50 is the [compound] that corresponds to ½ the total observed amplitude (Amplitude=max−min).
To measure modulation, activation, or inhibition of AblKD, a test compound was added to the assay at a range of concentrations. Inhibitors may inhibit AblKD activity at an IC50 in the micromolar range, the nanomolar range, and, for example, in the subnanomolar range.
To measure the binding of a compound to Abl or AblKD, a test kit manufactured by Discoverx (Fremont, Calif.), ED—Staurosporine NSIP™ Enzyme Binding Assay Kit (see U.S. Pat. No. 5,643,734) was used.

Assay [2] has as its system MV4-11 cells. Kind of assay: Cell survival assay (96-well XTT / 384-well AlamarBlue), MV4-11. It is filed as cell-based. The settings on record: Homo sapiens, Table 10, symbol outside brackets, 72 hours. The method, then: (§1) Flt3 cell line selection was performed according to the following two known methodologies: Kelly, et al, Cancer Cell 1:421-32 (2002); and Ye, et al, Blood 100: 2941-2949 (2002). MV4-11 and THP cells are maintained in Iscove's Modified Dulbecco's Medium supplemented with 10% fetal bovine serum (FBS) and penicillin/streptomycin, Ba/F3 cells are maintained in RPMI 1640 supplemented with 10% FBS, penicillin/streptomycin and 5ng/ml recombinant mouse IL-3.
(§2) Compounds were tested in both of the following assays in triplicates.
(§3) 96-well XTT assay: Cells are grown in their growth media containing various concentrations of compounds (triplicates) on a 96-well plate for 72 hours at 37° C. The starting cell number is 8000 cells per well and volume is 120 μl. At the end of the 72-hour incubation, 40μl of XTT labeling mixture (50:1 solution of sodium 3′-[1 -(pheylamino-carbonyl)-3,4-tetrazolium]-bis (4-methoxy-6-nitro)benzene sulfonic acid hydrate and Electron-coupling reagent: PMS (N-methyl dibenzopyrazine methyl sulfate) is added to each well of the plate. After additional 2 hours of incubation at 37° C., the absorbance reading at 405 nm with background correction at 650 nm is done using a spectrophotometer.
(§4) 384-well AlamarBlue assay: 90 μl of cell suspension is plated onto each well of a 384-well plate preprinted with 0.5 μl of compound in DMSO or DMSO only. The starting cell number is 4000 cells per well. After 72-hour incubation, 10 μl of AlamarBlue solution (440 μM resazurin in PBS) is then added to each well of the plate. After additional 2-hour incubation at 37° C., fluorescence is measured using a TECAN plate reading with excitation at 535 nm and emission 591 nm.
A general note: Formazan colour is commonly taken as a measure of viable cells.

In assay [3] the test system is THP cells. Kind of assay: Cell survival assay (96-well XTT / 384-well AlamarBlue), THP. As to conditions: Table 10; symbol in brackets; 72 hours. It is filed as cell-based. How it is done:
as §1, §2, §3, §4

The target of assay [4] is T2, RON kinase (M1254T activation loop mutant) (Homo sapiens, UniProt Q04912, M1254T).
T2 construct: made in house
T2 sequence (Q04912 25-1400 M1254T): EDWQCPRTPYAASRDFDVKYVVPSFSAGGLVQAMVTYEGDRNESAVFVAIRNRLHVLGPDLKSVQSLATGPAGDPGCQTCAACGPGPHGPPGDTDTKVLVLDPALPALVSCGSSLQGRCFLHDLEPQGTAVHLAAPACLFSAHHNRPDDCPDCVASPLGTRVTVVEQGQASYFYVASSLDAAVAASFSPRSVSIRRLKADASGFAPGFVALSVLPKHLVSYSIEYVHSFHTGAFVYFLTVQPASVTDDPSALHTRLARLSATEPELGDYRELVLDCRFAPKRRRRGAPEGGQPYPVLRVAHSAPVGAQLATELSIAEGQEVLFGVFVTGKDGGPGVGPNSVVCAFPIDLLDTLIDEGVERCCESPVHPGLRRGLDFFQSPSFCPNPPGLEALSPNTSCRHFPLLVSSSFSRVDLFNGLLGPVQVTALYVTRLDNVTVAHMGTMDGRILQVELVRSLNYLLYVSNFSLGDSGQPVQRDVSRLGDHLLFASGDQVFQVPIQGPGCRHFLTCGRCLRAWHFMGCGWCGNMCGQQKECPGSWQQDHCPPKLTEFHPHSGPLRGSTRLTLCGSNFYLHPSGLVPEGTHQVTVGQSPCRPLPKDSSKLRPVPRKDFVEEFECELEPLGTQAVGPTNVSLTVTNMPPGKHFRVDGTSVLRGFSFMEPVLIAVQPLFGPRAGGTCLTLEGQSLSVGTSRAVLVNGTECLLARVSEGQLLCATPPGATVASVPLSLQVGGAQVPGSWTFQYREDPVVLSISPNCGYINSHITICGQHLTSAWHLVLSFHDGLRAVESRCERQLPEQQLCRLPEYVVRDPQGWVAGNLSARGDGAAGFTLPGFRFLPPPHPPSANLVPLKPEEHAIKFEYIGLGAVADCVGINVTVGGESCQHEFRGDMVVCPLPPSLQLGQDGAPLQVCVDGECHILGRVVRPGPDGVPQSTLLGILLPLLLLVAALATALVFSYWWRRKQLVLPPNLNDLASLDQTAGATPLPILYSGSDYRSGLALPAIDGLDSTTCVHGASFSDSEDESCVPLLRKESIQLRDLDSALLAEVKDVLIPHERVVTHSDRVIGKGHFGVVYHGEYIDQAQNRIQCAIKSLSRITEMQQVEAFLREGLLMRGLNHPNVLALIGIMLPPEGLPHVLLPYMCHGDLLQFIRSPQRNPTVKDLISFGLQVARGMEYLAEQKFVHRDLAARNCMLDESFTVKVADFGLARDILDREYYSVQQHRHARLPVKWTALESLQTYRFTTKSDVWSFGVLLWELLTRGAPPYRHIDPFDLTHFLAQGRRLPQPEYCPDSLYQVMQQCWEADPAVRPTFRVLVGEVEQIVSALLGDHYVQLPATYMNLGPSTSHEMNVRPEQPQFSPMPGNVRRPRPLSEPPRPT
Put plainly: RON Kinase-Glo assay. It is filed as biochemical. As to conditions: Table 9, 60 minutes to 120 minutes at RT. The source says: (§5) Although this example presents the use of wild type MET and RON […], the kinase assays may use various forms of mutant and wild type RON or MET, including, for example, the entire intracellular domain, the kinase domain, or a portion thereof. The kinases used in the assays may also be of varying phophorylation states. In the case of RON, a mutant kinase at a zero phosphorylation state was used.
(§6) For the MET and RON assays, the Kinase-Glo® assay system (Promega) was used, which employs firefly luciferase to detect the amount of ATP following a kinase reaction. This assay system has two steps. First, the kinase reaction is run for a designated period of time. Next, an equivalent volume of Kinase-Glo reagent is added to quench the kinase reaction and detect the ATP remaining in the sample. The total light output is read by a plate-reading luminometer and the resulting signal is stable for 4 hours. Inhibition of kinase activity translates into lower ATP consumption and thus higher light output during the detection step.
(§7) Materials: Poly EY 4:1 (Sigma); MgCl2 (2M stock available from Lab Support); HEPES buffer, pH 7.5; Bovine serum albumin (Roche 92423420); ATP (Sigma CAT#A-3377, FW=551); White Costar 384-well flat-bottom plate (VWR 29444-088); and SGX RON kinase clone (M1254T activation loop mutant) or SGX MET kinase clone.
RON enzyme mix: 100 mM HEPES pH 7.5, 10 mM MgCl2, 1 mg/mL poly EY, 0.1% BSA, and 3-5 μg/mL RON kinase (depending on enzyme prep).
(§8) To each well of a multiwell plate was added 15 μL of the enzyme mix, 1 μL of compound at 20-times the desired final assay concentration (or DMSO for positive controls or 200 μM staurosporine for negative controls), and 4 μL of 50 μM ATP to start the reaction. The kinase was reaction to allowed to proceed for 60 minutes at RT for the MET assay. For the RON assay, the reaction proceeded at RT for 60 minutes to 120 minutes (depending on enzyme prep). 20 μL Kinase-Glo reagent was then added to each well. The reagent was incubated for at least 10 minutes before plate reading.
(§9) Data anlaysis was performed using methods similar to those described above in the Abl assay (Firepower®, Exegetix).

The target in assay [5] is T3, wild type MET kinase (Homo sapiens, UniProt P08581).
T3 construct: made in house
T3 sequence (P08581 25-1390): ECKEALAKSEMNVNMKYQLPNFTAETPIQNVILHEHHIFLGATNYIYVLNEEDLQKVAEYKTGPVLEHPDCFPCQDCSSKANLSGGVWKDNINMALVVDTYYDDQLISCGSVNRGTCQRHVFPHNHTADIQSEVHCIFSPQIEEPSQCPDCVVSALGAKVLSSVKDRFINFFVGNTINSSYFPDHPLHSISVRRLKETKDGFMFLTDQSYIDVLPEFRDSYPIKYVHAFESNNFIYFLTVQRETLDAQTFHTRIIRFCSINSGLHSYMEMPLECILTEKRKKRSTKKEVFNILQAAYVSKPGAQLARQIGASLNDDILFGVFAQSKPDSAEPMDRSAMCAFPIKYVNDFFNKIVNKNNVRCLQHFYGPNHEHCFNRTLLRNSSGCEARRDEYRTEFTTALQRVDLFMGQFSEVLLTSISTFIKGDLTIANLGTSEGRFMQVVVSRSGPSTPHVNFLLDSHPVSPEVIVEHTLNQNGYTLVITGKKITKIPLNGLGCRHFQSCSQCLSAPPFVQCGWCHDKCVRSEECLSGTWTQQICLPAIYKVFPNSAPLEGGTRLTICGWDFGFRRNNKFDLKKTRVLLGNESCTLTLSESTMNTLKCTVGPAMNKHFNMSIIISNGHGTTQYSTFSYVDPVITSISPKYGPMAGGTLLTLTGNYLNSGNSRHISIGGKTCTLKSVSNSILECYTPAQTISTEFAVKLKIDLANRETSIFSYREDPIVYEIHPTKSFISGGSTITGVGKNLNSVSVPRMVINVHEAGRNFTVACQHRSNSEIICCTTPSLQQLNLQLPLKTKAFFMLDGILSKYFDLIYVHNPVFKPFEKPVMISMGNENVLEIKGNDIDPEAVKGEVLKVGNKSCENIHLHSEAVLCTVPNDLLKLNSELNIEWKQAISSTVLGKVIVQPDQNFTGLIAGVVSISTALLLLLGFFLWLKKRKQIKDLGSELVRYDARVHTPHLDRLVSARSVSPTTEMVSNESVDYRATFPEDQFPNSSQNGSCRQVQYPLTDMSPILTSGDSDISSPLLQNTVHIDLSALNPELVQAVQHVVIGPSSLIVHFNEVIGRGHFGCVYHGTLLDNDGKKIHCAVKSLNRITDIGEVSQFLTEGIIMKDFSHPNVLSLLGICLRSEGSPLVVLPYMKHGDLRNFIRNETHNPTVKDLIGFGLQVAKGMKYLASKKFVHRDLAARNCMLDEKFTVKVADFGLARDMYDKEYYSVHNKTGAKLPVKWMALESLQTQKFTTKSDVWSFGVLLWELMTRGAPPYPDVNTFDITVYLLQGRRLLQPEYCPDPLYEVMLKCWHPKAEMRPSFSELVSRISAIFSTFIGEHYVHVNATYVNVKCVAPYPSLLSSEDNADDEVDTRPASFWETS
Kind of assay: MET Kinase-Glo assay. It is filed as biochemical. As to conditions: Table 9, 60 minutes at RT.
From the text: as §5, §6, §7
MET enzyme mix: 100 mM HEPES pH 7.5, 10 mM MgCl2, 0.3 mg/mL poly EY, 0.1% BSA, and 0.4 μg/mL MET kinase.
as §8, §9

With `O=C(Nc1nc2[nH]nc(-c3ccccn3)c2s1)c1ccccc1`, in assay [1], the IC50 lay within 11 to 100 µM.
For `O=C(Nc1nc2[nH]nc(-c3ccc(Cl)cc3)c2s1)c1ccccc1` [drawing 281], the values for the IC50 in assay [2] and in assay [3] were 1 to 10 µM and 11 to 100 µM, respectively.
For the molecule `O=C(Nc1nc2[nH]nc(-c3ccccc3Br)c2s1)C1CC1` [drawing 278], the IC50 was greater than 20 µM in assay [4] and 5 to 20 µM in assay [5].
Consider `O=C(Nc1nc2[nH]nc(-c3ccccc3)c2s1)c1ccncc1` [drawing 282], for which the values for the IC50 in assay [2] and in assay [3] were 1 to 10 µM and 11 to 100 µM, respectively.
For `CC(C)C(=O)Nc1nc2[nH]nc(-c3ccccc3Cl)c2s1`, the IC50 in assay [4] is 5 to 20 µM; in assay [5] it was less than 5 µM.
For `COc1ccc(-c2n[nH]c3nc(NC(=O)C4CC4)sc23)cc1` [drawing 280], the IC50 in assay [4] and in assay [5] was greater than 20 µM throughout.
As to `CC(=O)N1CCC(C(=O)Nc2nc3[nH]nc(-c4ccccc4)c3s2)CC1` [drawing 284], the results for the IC50 in assay [2] and in assay [3] were 1 to 10 µM and 11 to 100 µM, respectively.
On to `Nc1nc2[nH]nc(-c3ccccc3)c2s1`, for which, in assay [1], the IC50 fell in the range of 11 to 100 µM.
The same measure, in the same setting: under `COc1ccc(-c2n[nH]c3nc(NC(=O)c4ccccc4)sc23)cc1` stands 11 to 100 µM.
As for `COc1cccc(OC)c1C(=O)Nc1nc2[nH]nc(-c3ccccc3Cl)c2s1`, the IC50 in assay [4] and in assay [5] was 5 to 20 µM in each case.
On to `O=C(Cc1cccs1)Nc1nc2[nH]nc(-c3ccccc3)c2s1`, for which the IC50 in assay [1] was less than 1 µM.
As to `CC(=O)O[C@@H](C)C(=O)Nc1nc2[nH]nc(-c3ccccc3Cl)c2s1`, the IC50 in assay [4] and in assay [5] was greater than 20 µM in each case.
Regarding `O=C(Nc1nc2[nH]nc(-c3ccccc3Cl)c2s1)C1CC1` [drawing 276], the IC50 in assay [4] is 5 to 20 µM; in assay [5] it was less than 5 µM.
Taken in the same sequence, the figures for `O=C(Nc1nc2[nH]nc(-c3ccc(O)cc3)c2s1)C1CC1` [drawing 274] were 5 to 20 µM and less than 5 µM.
`O=C(Nc1nc2[nH]nc(-c3cccc(Cl)c3)c2s1)c1ccccc1` gave an IC50 in assay [1] of 1 to 10 µM.
The same measure, in the same setting: under `O=C(Nc1nc2[nH]nc(-c3ccccc3)c2s1)c1ccco1` [drawing 264] stands less than 1 µM.
For `COCCOCC(=O)Nc1nc2[nH]nc(-c3ccccc3)c2s1` [drawing 283], the IC50 in assay [2] is 1 to 10 µM; in assay [3] it was 11 to 100 µM.
